The numbers were not newly measured in publication PMC10026531 (Clinical Pharmacology in Drug Development, 2022), which cites them from elsewhere.

For the series the following is noted: in vivo, po.

Turning to `O=c1ccc2ccc(OCCCCN3CCN(c4cccc(Cl)c4Cl)CC3)cc2[nH]1` [dehydro‐aripiprazole], the “share of the parent drug exposure in plasma” value is given as 40%.
